Test results published in US20260223846A1, “PEPTIDE IN COMBINATION WITH FUNGICIDE COMPOSITIONS FOR FUNGAL CONTROL AND RELATED METHODS” (priority 2023, published 2026).
Read-outs that look alike come from different tables or passages of the source. Where no end group is shown, it is not given here.

Legend:
[1] = test system: Pseudoperonospora cubensis; assay: Pseudoperonospora cubensis (cucurbit downy mildew) leaf disk assay; type: in vivo; details: for Summary of CGI factor spectrum of activity: Downy Mildew
Fusarium proliferatum = assay: Co-incubation (oCelloScope) assay, F. proliferatum conidial germination; type: cell-based
[2] = test system: Fusarium graminearum (Gibberella zeae); type: cell-based; details: for Inhibition: 50 micromolar; for Summary of CGI factor spectrum of activity: Fusarium graminearum
Botrytis cinerea b05.10 = type: cell-based
[3] = test system: Fusarium oxysporum f. sp. lycopersici (Saccardo) Snyder et Hansen CBS 167.30; assay: Resazurin plate co-incubation assay, F. oxysporum; type: cell-based; details: for Inhibition: 50 micromolar; for Summary of CGI factor spectrum of activity: Fusarium oxysporum
Botrytis (Strain B05.10) = assay: Botrytis inhibition assay (resazurin assay); type: cell-based; details: for inhibition at 1 µM: tested alone at 1 μM
[4] = tested alone at 0.25 uM, 24 hours at 23° C.
[5] = tested alone at 0.5 uM, 24 hours at 23° C.
[6] = tested alone at 1 uM, 24 hours at 23° C.
[7] = 10 micromolar, 24 hours at 20° C.
[8] = 100 micromolar, 24 hours at 20° C.
[9] = Botrytis cinerea, at least one concentration tested
[10] = read-out: Percent Inhibition EXP23002594
[11] = read-out: Percent Inhibition EXP23002662
[12] = tested alone at 5 uM, 24 hours at 23° C.
[13] = tested alone at 0.02 ug/ml, 24 hours at 23° C.
[14] = tested alone at 0.2 ug/ml, 24 hours at 23° C.
[15] = tested alone at 2 ug/ml, 24 hours at 23° C.

RRRRRRRR [Pep462, Octaarginine (R8) cell-penetrating peptide (non-CGI peptide CONTROL)]
Inhibition (reduced disease severity of leaf discs) ([1]; 20 micromolar): did not and No
Summary of CGI factor spectrum of activity [1]: No
Inhibition of conidial germination (Fusarium proliferatum; tested alone at 0.125 uM, 24 hours at 23° C.): No
Inhibition of conidial germination (Fusarium proliferatum; [4]): No
Inhibition of conidial germination (Fusarium proliferatum; [5]): No
Inhibition of conidial germination (Fusarium proliferatum; [6]): effective and Yes
Inhibition [2]: Yes
Summary of CGI factor spectrum of activity [2]: Yes
Inhibition (Botrytis cinerea b05.10; [7]): inhibited and Yes
Inhibition (Botrytis cinerea b05.10; [8]): inhibited and Yes
Summary of CGI factor spectrum of activity (Botrytis cinerea b05.10; [9]): completely inhibited conidial germination and Yes
Inhibition [3]: Yes
Summary of CGI factor spectrum of activity [3]: Yes

CC[C@H](C)C[C@H](C)CCCCCCCCC(=O)N[C@H]1C[C@@H](O)[C@@H](NCCN)NC(=O)[C@@H]2[C@@H](O)CCN2C(=O)[C@H]([C@H](O)CCN)NC(=O)[C@H]([C@H](O)[C@@H](O)c2ccc(O)cc2)NC(=O)[C@@H]2C[C@@H](O)CN2C(=O)[C@H]([C@@H](C)O)NC1=O [Caspofungin]
inhibition at 1 µM (Botrytis (Strain B05.10); read-out: Percent Inhibition EXP23002534): 1.08%
inhibition at 1 µM (Botrytis (Strain B05.10); [10]): 98.7%
inhibition at 1 µM (Botrytis (Strain B05.10); [11]): 3.1%

WHWLQLKPGQPMY (listed as Saccharomyces cerevisiae) [Pep107, S. cerevisiae Alpha-pheromone]
Inhibition (reduced disease severity of leaf discs) ([1]; 200 micromolar): reduced the disease severity and Yes
Summary of CGI factor spectrum of activity [1]: Yes
Inhibition [2]: did not show any inhibition and No
Summary of CGI factor spectrum of activity [2]: No
Inhibition (Botrytis cinerea b05.10; [7]): No
Inhibition (Botrytis cinerea b05.10; [8]): moderate inhibition and Some
Summary of CGI factor spectrum of activity (Botrytis cinerea b05.10; [9]): Yes
Inhibition [3]: Yes
Summary of CGI factor spectrum of activity [3]: Yes

C[C@@H]1C/C=C/C=C/C=C/C=C/[C@H](O[C@@H]2O[C@H](C)[C@@H](O)[C@H](N)[C@@H]2O)C[C@@H]2O[C@](O)(C[C@@H](O)C[C@H]3O[C@@H]3/C=C/C(=O)O1)C[C@H](O)[C@H]2C(=O)O [Natamycin]
Inhibition of conidial germination (Fusarium proliferatum; [12]): did not show any inhibition
Inhibition of conidial germination (Fusarium proliferatum; tested alone at 5 ug/ml, 24 hours at 23° C.): No
Inhibition of conidial germination (Fusarium proliferatum; tested alone at 10 ug/ml, 24 hours at 23° C.): No
Inhibition of conidial germination (Fusarium proliferatum; tested alone at 100 ug/ml, 24 hours at 23° C.): inhibited fungal growth and Yes
inhibition at 100 µM (Botrytis (Strain B05.10); Table 20, tested alone at 100 μM (positive control), read-out: Percent Inhibition (Median)): 101%
inhibition at 100 µM (Botrytis (Strain B05.10); tested alone at 100 μM (positive control 1), read-out: Percent Inhibition EXP23002534): 100%
inhibition at 100 µM (Botrytis (Strain B05.10); tested alone at 100 μM (positive control 1), read-out: Percent Inhibition EXP23002594): 101%
inhibition at 100 µM (Botrytis (Strain B05.10); tested alone at 100 μM, read-out: Percent Inhibition EXP23002662): 101%

N#Cc1c[nH]cc1-c1cccc2c1OC(F)(F)O2 [Fludioxonil]
Inhibition of conidial germination (Fusarium proliferatum; [13]): did not show any inhibition and No
Inhibition of conidial germination (Fusarium proliferatum; [14]): No
Inhibition of conidial germination (Fusarium proliferatum; [15]): Yes

CON=C(C(=O)OC)c1ccccc1CON=C(C)c1cccc(C(F)(F)F)c1 [Trifloxystrobin]
Inhibition of conidial germination (Fusarium proliferatum; [14]): neither boscalid nor trifloxystrobin showed any inhibition and No
Inhibition of conidial germination (Fusarium proliferatum; [15]): neither boscalid nor trifloxystrobin showed any inhibition and No

WHWLQLKPGQPMYGGGGWHWLQLKPGQPMY (listed as Saccharomyces cerevisiae) [Pep302, S. cerevisiae Alpha-pheromone homodimer with GGGG linker]
Inhibition of conidial germination (Fusarium proliferatum; [4]): No
Inhibition of conidial germination (Fusarium proliferatum; [5]): No
Inhibition of conidial germination (Fusarium proliferatum; [6]): Yes

N#Cc1c[nH]cc1-c1cccc(Cl)c1Cl [Fenpiclonil]
Inhibition of conidial germination (Fusarium proliferatum; [12]): did not inhibit conidial germination and No
Inhibition of conidial germination (Fusarium proliferatum; tested alone at 10 uM, 24 hours at 23° C.): No
Inhibition of conidial germination (Fusarium proliferatum; tested alone at 50 uM, 24 hours at 23° C.): Yes

O=C(Nc1ccccc1-c1ccc(Cl)cc1)c1cccnc1Cl [Boscalid]
Inhibition of conidial germination (Fusarium proliferatum; [14]): neither boscalid nor trifloxystrobin showed any inhibition and No
Inhibition of conidial germination (Fusarium proliferatum; [15]): neither boscalid nor trifloxystrobin showed any inhibition and no inhibition and No

WCTWKGQPCW [Pep105]
Inhibition of conidial germination (Fusarium proliferatum): No and Yes
Inhibition (Botrytis cinerea b05.10): No
Summary of CGI factor spectrum of activity (Botrytis cinerea b05.10): No

Cc1cc(C2CC2)nc(Nc2ccccc2)n1 [Cyprodinil]
inhibition at 50 µM (Botrytis (Strain B05.10); [10]): 73.6%
inhibition at 50 µM (Botrytis (Strain B05.10); [11]): 53.7%
inhibition at 100 µM (Botrytis (Strain B05.10); [11]): 74.8%

CC1(C)CCC(Cc2ccc(Cl)cc2)C1(O)Cn1cncn1 (stereo not shown) [Metconazole]
Inhibition of conidial germination (Fusarium proliferatum; [13]): did not show any inhibition and No
Inhibition of conidial germination (Fusarium proliferatum; [14]): No
Inhibition of conidial germination (Fusarium proliferatum; [15]): inhibited fungal growth and Yes

Drosomycin (DCLSGRYKGPCAVWDNETCRRVCKEEGRSSGHCSPSLKCWCEGC; disulfide (positions not given here); not fully specified; ends not checked; also: four intramolecular disulfide bridges, pairing not given here; UniProt P41964 27-70, looked up) [44-residue antifungal peptide with four intramolecular disulfide bridges, heterologously expressed in E. coli]
Inhibition of conidial germination (Fusarium proliferatum; [5]): did not show any inhibition and No
Inhibition of conidial germination (Fusarium proliferatum; [6]): did not show any inhibition and No
Inhibition of conidial germination (Fusarium proliferatum; tested alone at 8 uM, 24 hours at 23° C.): Yes

WHWLQLKPGQPMYWHWLQLKPGQPMY (listed as Saccharomyces cerevisiae) [Pep301, S. cerevisiae Alpha-pheromone homodimer]
Inhibition (reduced disease severity of leaf discs) ([1]; 20 micromolar): reduced the disease severity and Yes
Summary of CGI factor spectrum of activity [1]: Yes
Inhibition of conidial germination (Fusarium proliferatum; [4]): No
Inhibition of conidial germination (Fusarium proliferatum; [5]): No
Inhibition of conidial germination (Fusarium proliferatum; [6]): Yes
Inhibition [2]: Yes
Summary of CGI factor spectrum of activity [2]: Yes
Inhibition (Botrytis cinerea b05.10; [7]): No
Inhibition (Botrytis cinerea b05.10; [8]): active and Yes
Summary of CGI factor spectrum of activity (Botrytis cinerea b05.10; [9]): completely inhibited conidial germination and Yes
Inhibition [3]: Yes
Summary of CGI factor spectrum of activity [3]: Yes

WCGRPGQPC (REGION 1..9: note = Botrytis spp.) [Pep106, B. cinerea Alpha-pheromone]
Inhibition (Botrytis cinerea b05.10; [7]): No
Inhibition (Botrytis cinerea b05.10; [8]): No
Summary of CGI factor spectrum of activity (Botrytis cinerea b05.10; [9]): No
